EC50 and ΔTm data for 7 molecules are collected here from patent US11203610B2, “2′3′ cyclic dinucleotides with phosphonate bond activating the sting adaptor protein” (INSTITUTE OF ORGANIC CHEMISTRY AND BIOCHEMISTRY ASCR, V.V.I., priority 2017, dated 2021).

Experiment [1] has as its target T1, WT STING (Homo sapiens, UniProt Q86WV6, H232R). In words: Digitonin assay using 293T wtSTING-FL reporter cells. In kind it is cell-based. As to conditions: 293T wtSTING-FL cells; 30 minutes in Digitonin buffer, then 5 hours; ISRE firefly luciferase reporter; 8-point dose-response curve; read-out: Digitonin assay EC50 (μmol · l^−1) WT STING.
Target sequence in this assay (Q86WV6 whole entry H232R, the tested form may be a part): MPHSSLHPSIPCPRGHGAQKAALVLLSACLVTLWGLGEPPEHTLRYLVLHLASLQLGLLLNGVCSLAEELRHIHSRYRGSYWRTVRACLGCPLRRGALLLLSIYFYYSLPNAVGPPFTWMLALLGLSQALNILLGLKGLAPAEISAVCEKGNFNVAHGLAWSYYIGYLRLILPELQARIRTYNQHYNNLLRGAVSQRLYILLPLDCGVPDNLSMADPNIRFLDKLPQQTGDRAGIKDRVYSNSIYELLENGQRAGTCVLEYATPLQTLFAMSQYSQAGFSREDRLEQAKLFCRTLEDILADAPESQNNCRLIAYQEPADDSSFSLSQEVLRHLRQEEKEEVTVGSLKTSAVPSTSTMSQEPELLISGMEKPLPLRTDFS
For experiment [2], the target named is T1, WT STING. In words: Differential Scanning Fluorimetry with WT STING. The experiment is classed as binding. On the set-up: truncated human WT STING or AQ STING (amino acid residues 140-343); 8xHis (N, cleaved yes); SUMO (N, cleaved yes); made in house; host or cells: E. coli Rosetta-gami B (DE3). As to conditions: thermal shift vs STING apoprotein; 150 μM CDN; 0.1 mg/ml truncated human WT STING; SYPRO Orange; read-out: DSF ΔTm (° C.) WT STING. Background: In DSF a fluorescence change marks the thermal transition of the protein.
Target sequence in this assay (Q86WV6 140-343 H232R): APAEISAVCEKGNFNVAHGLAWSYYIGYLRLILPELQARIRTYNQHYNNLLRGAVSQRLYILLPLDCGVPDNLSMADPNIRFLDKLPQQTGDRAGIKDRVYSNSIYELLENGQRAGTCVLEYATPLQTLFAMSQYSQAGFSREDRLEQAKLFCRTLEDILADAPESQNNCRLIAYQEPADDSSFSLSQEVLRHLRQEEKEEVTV

For a further experiment, the target named is T2, AQ STING (G230A-R293Q) (Homo sapiens, UniProt Q86WV6, G230A/H232R/R293Q).
T2 construct: truncated human WT STING or AQ STING (amino acid residues 140-343); 8xHis (N, cleaved yes); SUMO (N, cleaved yes); made in house; host or cells: E. coli Rosetta-gami B (DE3)
T2 sequence (Q86WV6 140-343 G230A/H232R/R293Q): as the sequence (Q86WV6 140-343 H232R) above, with G91A, R154Q counted along it
As to the kind of experiment: Differential Scanning Fluorimetry with AQ STING. As to conditions: thermal shift vs STING apoprotein; 150 μM CDN; 0.1 mg/ml truncated human AQ STING; SYPRO Orange; read-out: DSF ΔTm (° C.) AQ STING. The experiment is classed as binding.

What is called EC50 is the concentration that produces a half-maximal response. The ΔTm is the shift of the melting midpoint relative to a reference.

For the molecule `Nc1nc2c(nnn2[C@@H]2O[C@@H]3OCP(=O)(O)O[C@H]4[C@@H](O)[C@H](n5cnc6c(N)ncnc65)O[C@@H]4COP(=O)(O)O[C@@H]2[C@@H]3O)c(=O)[nH]1` [Compound 57, (1R,6R,8R,9R,10S,15R,17R,18S)-17-{5-amino-7-oxo-3H,6H,7H-[1,2,3]triazolo[4,5-d]pyrimidin-3-yl}-8-(6-amino-9H-purin-9-yl)-3,9,12,18-tetrahydroxy-2,4,7,11,14,16-hexaoxa-3λ^5,12λ^5-diphosphatricyclo[13.2.1.0^6,10]octadecane-3,12-dione], at WT STING [1], the EC50 worked out at 20 nM. The ΔTm at 150 µM at WT STING [2] came out at 14.8 °C; at AQ STING (G230A-R293Q) it was 22.2 °C.
Taken in the same sequence, the figures for `NC(=O)c1ncn([C@@H]2O[C@@H]3COP(=O)(O)O[C@@H]4[C@H](O)[C@@H](OCP(=O)(O)O[C@H]3[C@H]2O)O[C@H]4n2cnc3c(=O)[nH]c(N)nc32)c1N` [Compound 58, 5-amino-1-[(1R,6R,8R,9R,10S,15R,17R,18S)-17-(2-amino-6-oxo-6,9-dihydro-1H-purin-9-yl)-3,9,12,18-tetrahydroxy-3,12-dioxo-2,4,7,11,14,16-hexaoxa-3λ^5,12λ^5-diphosphatricyclo[13.2.1.0^6,10]octadecan-8-yl]-1H-imidazole-4-carboxamide] were 120 nM, 8.3 °C and 11.9 °C.
The like results for `Nc1ncnc2c1ncn2[C@@H]1O[C@@H]2OCP(=O)(O)O[C@@H]3[C@H](O)[C@@H](COP(=O)(O)O[C@H]2[C@H]1O)C[C@H]3n1cnc2c(=O)[nH]cnc21` [Compound 59, (1S,6R,8R,9R,10S,15R,17R,18R)-8-(6-amino-9H-purin-9-yl)-3,9,12,18-tetrahydroxy-17-(6-oxo-6,9-dihydro-1H-purin-9-yl)-2,5,7,11,13-pentaoxa-3λ^5,12λ^5-diphosphatricyclo[13.2.1.0^6,10]octadecane-3,12-dione] were, in that order, 1100 nM, 1.8 °C and 10 °C.
The like results for `Nc1nc2c(ncn2[C@@H]2O[C@@H]3OCP(=O)(O)O[C@H]4[C@@H](O)[C@H](n5cnc6c(N)ncnc65)O[C@@H]4COP(=O)(O)O[C@@H]2[C@@H]3F)c(=O)[nH]1` [Compound 60, (1S,6R,8R,9R,10S,15R,17R,18S)-17-(2-amino-6-oxo-6,9-dihydro-1H-purin-9-yl)-8-(6-amino-9H-purin-9-yl)-18-fluoro-3,9,12-trihydroxy-2,4,7,11,14,16-hexaoxa-3λ^5,12λ^5-diphosphatricyclo[13.2.1.0^6,10]octadecane-3,12-dione] were, in that order, 12 nM, 18.1 °C and 24 °C.
For the molecule `Nc1nc2c(nnn2[C@@H]2O[C@@H]3OCP(=O)(O)O[C@@H]4[C@@H](OCP(=O)(O)O[C@@H]2[C@@H]3O)O[C@@H](n2cnc3c(N)ncnc32)[C@@H]4O)c(=O)[nH]1` [Compound 61, (1R,6R,8R,9R,10S,15R,17R,18S)-17-{5-amino-7-oxo-3H,6H,7H-[1,2,3]triazolo[4,5-d]pyrimidin-3-yl}-8-(6-amino-9H-purin-9-yl)-3,9,12,18-tetrahydroxy-2,5,7,11,14,16-hexaoxa-3λ^5,12λ^5-diphosphatricyclo[13.2.1.0^6,10]octadecane-3,12-dione], the EC50 on WT STING [1] was determined as 27 nM. Further, the ΔTm at 150 µM at WT STING [2] was determined as 10 °C; on AQ STING (G230A-R293Q), 17.6 °C.
The like results for `Nc1nc2c(nnn2[C@@H]2O[C@@H]3OCP(=O)(O)O[C@H]4[C@H](O)[C@H](n5cnc6c(N)ncnc65)O[C@@H]4COP(=O)(O)O[C@@H]2[C@@H]3O)c(=O)[nH]1` [Compound 62, (1R,6R,8R,9S,10S,15R,17R,18S)-17-{5-amino-7-oxo-3H,6H,7H-[1,2,3]triazolo[4,5-d]pyrimidin-3-yl}-8-(6-amino-9H-purin-9-yl)-3,9,12,18-tetrahydroxy-2,4,7,11,14,16-hexaoxa-3λ^5,12λ^5-diphosphatricyclo[13.2.1.0^6,10]octadecane-3,12-dione] were, in that order, 50 nM, 16 °C and 22.9 °C.
The like results for `Nc1nc2c(nnn2[C@@H]2O[C@@H]3OCP(=O)(O)OC4C(F)[C@H](n5cnc6c(N)ncnc65)O[C@@H]4COP(=O)(O)OC2C3O)c(=O)[nH]1` (stereo partly drawn) [Compound 63, (6R,8R,15R,17R)-17-{5-amino-7-oxo-3H,6H,7H-[1,2,3]triazolo[4,5-d]pyrimidin-3-yl}-8-(6-amino-9H-purin-9-yl)-9-fluoro-3,12,18-trihydroxy-2,4,7,11,14,16-hexaoxa-3λ^5,12λ^5-diphosphatricyclo[13.2.1.0^6,10]octadecane-3,12-dione] were, in that order, 8 nM, 19.5 °C and 26.4 °C.
